Source: patent US5334582A, “Pharmaceutical bacteriocin compositions and methods for using the same” (Applied Microbiology, Inc., priority 1993, dated 1994)
Like-named read-outs stand apart in the source and are kept apart here.

Experiments:
Escherichia coli = details: for % survival at 1 min: nisin 100 μg/ml and/or EDTA 1.0 mM
Experimental: The rapid activities of various chelator-enhanced nisin formulations were evaluated in acid vehicles in a germicidal suspension assay.
E. coli cells from an overnight Trypticase soy nutrient agar (TSA) were resuspended to a density measured as an absorbance of 1.0 at 600 nm in sterile ddH2 O. The reaction of the cells with each of the bactericidal test formulations analyzed is started by addition of 30 μl of cells to 970 μl of test formulation. The reaction mixture was incubated at 37° C. for at least 1 minute and then centrifuged in a microfuge for 1 minute. The cell pellet was washed by resuspension in 1 ml of neutralization buffer. (The neutralization buffer: 50 mM Tris-HCl, pH 7.0, 5 mM MgSO4, 20 mM CaCl2, 0.1 M NaCl and 0.1% gelatin was prepared by first making Tris buffer and adjusting the pH. The salts and gelatin were then added and the solution stirred with heat until the solution was clear. The solution was then autoclaved for 20 min. The neutralization buffer was used without dilution.) The cells were centrifuged in a microfuge for 1 minute and resuspended in 1 ml of neutralization buffer. The viable count was determined by spreading 100 μl of bacterial suspension and serial dilutions thereof in neutralization buffer on nutrient agar and scoring surviving colonies after 24 h at 37° C. Percent survival relative to untreated controls was calculated from the scored values.

E. coli strain ATCC8739 = experiment: nisin-citrate agar growth inhibition assay; assay type: cell-based; details: Trypticase Soy Agar
Experimental: However, nisin in the presence of citrate is active against gram negative bacteria. […] This nisin-citrate agar assay has much more general applicability. The assay provides a method for screening potential agents other than citrate in combination with nisin for their potential properties as enhancers of nisin's inherent bactericidal activity.
E. coli is resuspended to an optical density of 1.0 at A600. A 100 μl sample of the bacterial suspension is spread uniformly on Trypticase Soy nutrient agar (TSA) supplemented with various concentrations of citrate (eg. 0.1%, 0.3%, 1.0%, 3.0%) and incubated for 1 hour at 37° C. A nisin stock solution and serial dilutions thereof in 0.1% bovine serum albumin (BSA), are prepared and 5 μl are taken from each and deposited onto the growing bacterial lawn. The TSA plates are then incubated for 24 hours at 37° C. After 24 hours at 37° C., E. coli grown on TSA supplemented with citrate form a confluent lawn. […] The effectiveness of nisin against the gram negative bacteria can be assessed from determining the minimum amount of nisin required to produce a clear zone of growth inhibition. As the concentration of citrate in the nutrient agar is increased, less nisin is required to inhibit the growth of E. coli, as is illustrated by the data shown in Table 6.

[1] = 0.1% w/v acetate pH 3.5, 37° C.
[2] = 0.1% w/v citrate pH 3.5, 37° C.
[3] = 0.1% w/v lactate pH 3.5, 37° C.
[4] = 0.3% w/v acetate pH 3.5, 37° C.
[5] = 0.3% w/v citrate pH 3.5, 37° C.
[6] = 0.3% w/v lactate pH 3.5, 37° C.
[7] = 1.0% w/v acetate pH 3.5, 37° C.
[8] = 1.0% w/v citrate pH 3.5, 37° C.
[9] = 3.0% w/v citrate pH 3.5, 37° C.
[10] = pH 2.0, 20 mM Na acetate buffer, 37° C., initial count 4 × 10^7 cfu/ml

Compound | % survival at 1 min (Escherichia coli; [1]) | % survival at 1 min (Escherichia coli; [2]) | % survival at 1 min (Escherichia coli; [3]) | % survival at 1 min (Escherichia coli; [4]) | % survival at 1 min (Escherichia coli; [5]) | % survival at 1 min (Escherichia coli; [6]) | % survival at 1 min (Escherichia coli; [7]) | % survival at 1 min (Escherichia coli; [8]) | % survival at 1 min (Escherichia coli; 1.0% w/v lactate pH 3.5, 37° C.) | % survival at 1 min (Escherichia coli; [9]) | % survival at 1 min (Escherichia coli; [10]) | % survival at 1 min (Escherichia coli; 3.0% w/v acetate pH 3.5, 37° C.) | activity towards gram negative bacteria (Escherichia coli; nisin by itself or in the presence of citrate) | % survival at 1 min (Escherichia coli; pH 3.5, 20 mM Na acetate buffer, 37° C.) | % survival at 1 min (Escherichia coli; pH 4.0, 20 mM Na acetate buffer, 37° C.) | Nisin NIC (nominal inhibitory concentration minimally required to prevent growth) (E. coli strain ATCC8739; 0% citrate) | Nisin NIC (nominal inhibitory concentration minimally required to prevent growth) (E. coli strain ATCC8739; 0.1% citrate) | Nisin NIC (nominal inhibitory concentration minimally required to prevent growth) (E. coli strain ATCC8739; 0.3% citrate) | Nisin NIC (nominal inhibitory concentration minimally required to prevent growth) (E. coli strain ATCC8739; 1.0% citrate) | Nisin NIC (nominal inhibitory concentration minimally required to prevent growth) (E. coli strain ATCC8739; 3.0% citrate)
O=C(O)CN(CCN(CC(=O)O)CC(=O)O)CC(=O)O [EDTA] | 40% | 100% | 5.1% | 25% | 50.0% | 0.46% | 25% | 47.9% | 0.91% | 100% | 0.07% |  |  |  |  |  |  |  |  | 
nisin | 9.6% | 0.003% | 4.4% | 70% | 0.0007% | 0.24% | 100% | 0.56% |  | 14.6% | 0.28% | 100% | ineffective | 100% | 100% | 3,333 μg/ml | 370 µg/mL | 123 µg/mL | 13.7 µg/mL | 0.06 µg/mL
